The subject of one experiment is Bcl-2, Bcl-w and Bcl-xL. To be noted: cited from earlier work.
Another experiment has as its system Mcl-1 and A1. To be noted: cited from earlier work.
The next experiment concerns xenograft models. To be noted: animal studies, single agent; cited from earlier work.
The target of another experiment is Bcl-xL (GST-Bcl-xL) (Homo sapiens, UniProt Q07817). The experiment is described as follows: TR-FRET binding assay, competition with F-Bak for the Bcl-xL binding site. The note with it: values listed in the order of Table 1, read-out: TR-FRET assay results (Ki), Bcl-xL.
For the next experiment, the target named is T1, Bcl-2 (GST-Bcl-2) (Homo sapiens, UniProt P10415).
T1 construct: made in house
In words: TR-FRET binding assay, competition with F-Bak for the Bcl-2 binding site. The note with it: Bcl-2, for comparison (selectivity). The procedure: For each assay plate, a probe/antibody and protein/antibody/probe mixture were included as a negative and a positive control, respectively. Fluorescence was measured on the Envision (Perkin Elmer) using a 340/35 nm excitation filter and 520/525 (F-Bak) and 495/510 nm (Tb-labeled anti-his antibody) emission filters. Dissociation constants (Ki) were determined using Wang's equation (see, Wang, Z. X. An exact mathematical expression for describing competitive binding of two different ligands to a protein molecule. FEBS Lett. 1995 360:111-114). The TR-FRET assay can be performed in the presence of varying concentrations of human serum (HS) or fetal bovine serum (FBS). For comparison, the measurement of the competition of compounds of the invention for other Bcl-2 family protein binding sites (e.g., Bcl-2, Mcl-1) using the TR-FRET binding assay was accomplish by substituting GST-Bcl-xL in the TR-FRET assay with other GST-labeled protein, e.g., GST-Bcl-2, GST-Mcl-1, prepared in-house.

Experiment [1] has as its system Mcl-1-/- mouse embryonic fibroblasts (MEF). The experiment is described as follows: Cell viability assay for Mcl-1-/- mouse embryonic fibroblasts (CellTiter-Glo). Format: cell-based. To be noted: Fibroblast, in the presence of 10% Fetal Bovine Serum, read-out: MEF Mcl-1-/- KO cell viability results (EC50). An excerpt:
a. Cell Viability Assay for Mcl-1^−/− Mouse Embryonic Fibroblasts (MEF): […]
In this assay, Mcl-1^(−/−) cells were used to confirm that cell apoptosis in the presence of BH3 mimetic small molecules was due to predominantly Bcl-xL inactivation. This inactivation leaves Bax/Bak unconstrained and results in apoptosis. The […]-GLO Luminescent Cell Viability Assay is a homogeneous method of determining the number of viable cells in culture based on quantitation of the ATP present. The amount of ATP correlates with the presence of metabolically active cells such that following cell lysis the amount of ATP present is proportional to the amount of luminescence measured.
Mcl-1^(−/−) mouse embryonic fibroblasts (MEFs) are an adherent cell line prepared in house. MEFs were grown in Iwaki 75 cm^2 tissue culture flasks (cat #3123-075) with FMA media which consists of • 89% DME Kelso • 10% heat-inactivated foetal calf serum (FCS) (Hyclone cat #SH30396.03) • 1% 10 mM asparagine (Fluka cat #11149) • 275 μl of a 1:2000 dilution of 2-mercaptoethanol is added to the final 500 ml volume of FMA (Sigma cat #M7522; diluted in MT-PBS)
FMA was stored at 4° C. and used at 37° C. MEFs were cultured in FMA media and harvested in MT-PBS and trypsin. For MEF cell viability assays, cells were seeded separately in plates with 10% FCS-FMA and 1% FCS-FMA.
Assays were performed using white, flat clear-bottom Greiner 384-well tissue culture grade (Interpath #781098) plates. The compounds were made up in Matrical 384-well, 25 μl V-bottomed plates (cat #MP101-2-PP), sealed with aluminium foil from Beckman Coulter (cat #538619) and stored at 12° C. overnight. Compound preparation and titrations were performed in AnalaR grade DMSO (Merck cat #1.02952.2500). The cell viability detection assay used was […]-GLO™ which is commercially available from Promega (cat #G7572), stored at −20° C. and used at 37° C.
Compounds of the invention were prepared as 10 mM solution in 100% DMSO and stored at −20° C. Compounds were thawed to room temperature and dispensed into a 384 well Matrical plate. Standard control compounds, e.g. 32.3 mM Etoposide, were added to the plate as controls.
The media was aspirated and the Mcl-1^(−/−) cells washed with 10 mls of warmed MT-PBS. MT-PBS was aspirated and 1 ml of trypsin was added. The T75 flasks were incubated at 37° C. until the cells became detached. 4 ml of 10% FCS FMA media was added to the trypsinized cells and the entire volume was transferred to a 50 ml centrifuge tube and centrifuged for 3 minutes at 250 g. The supernatant was aspirated and the pellet resuspended in 10 ml of 10% FCS FMA. 3 ml of this cell suspension was added to a clean 75 cm^2 flask containing 17 ml of 10% FCS FMA media, thus performing a 3:10 split. The remaining cell suspension was used to perform a 1:50 split into another 75 cm^2 flask for further culturing.
Cells were harvested as per method step 1 and the pellet resuspended in 3 mls 10% FCS FMA. Cell number was determined by counting in a Neubauer haemocytometer and the dilution calculated to achieve a density of 1×10^4 cells ml^−1 (500 cells per well in 50 μl media). Separate dilutions were prepared in 50 ml 10% FCS FMA and 50 ml 1% FCS FMA solutions respectively.
Four assay plates were set up per compound plate. Two 384 well plates containing Mcl-1^(−/−) cells in 10% FCS FMA and the other two plates containing Mcl-1^(−/−) cells in 1% FCS FMA.
Using the Multidrop, 25 μl cells were dispensed aseptically into all 384 wells of the assay plates. Plates were left to rest in a non-stacked layer at room temperature for approximately 30 minutes (minimizes edge-effects) and then were placed as a single layer in the 37° C. incubator. The plates were left to incubate overnight.
The compound plates were titrated by performing a 3-fold 11-point dilution series using 100% DMSO on the MiniTrak. Following titration of the compounds, 100 nl of compounds were added to the cell plates using the Zymark Sciclone Pintool. […]

In the next experiment the test system is platelets. The experiment is described as follows: Cell viability assay for platelets (platelet rich plasma, CellTiter-Glo). Format: cell-based. The note with it: approximately 4 hours at 37 C. The procedure: Platelet rich plasma (PRP) was incubated with a compound of the invention for approximately 4 hours at 37° C. After incubation, platelets were equilibrated to room temperature for 20 minutes and then and equal volume of CELL TITER-GLO™ reagent (Promega Corporation) was added. Samples were mixed for two minutes and then allowed to equilibrate for an additional 10 minutes at room temperature. The luminescence generated from the samples was quantitated using a LJL Analyst plate reader. Data analysis was performed using GraphPad Prism 4.0.

Experiment [2] relates to NCI-H146 human small cell lung carcinoma cells. The experiment is described as follows: Cellular viability of human tumor cell line NCI-H146 (MTS assay). Format: cell-based. The note with it: 10% human serum, 48 hours of compound treatment. How it is done:
NCI-H146 (ATCC, Manassas, Va.) human small cell lung carcinoma cells were plated 50,000 cells per well in 96-well tissue culture plates in a total volume of 100 μL tissue culture medium supplemented with 10% human serum (Invitrogen, Carlsbad, Calif.) and treated with a 2-fold serial dilution of the compounds of interest from 10 μM to […].
Each concentration was tested in duplicate at least 3 separate times. The number of viable cells following 48 hours of compound treatment was determined using the […] 96® Aqueous non-radioactive cell proliferation MTS assay according to manufacturer's recommendations (Promega Corp., Madison, Wis.).

pEC50, pKi: −log10 of the molar value.

T1 sequence (P10415 whole entry, species assumed): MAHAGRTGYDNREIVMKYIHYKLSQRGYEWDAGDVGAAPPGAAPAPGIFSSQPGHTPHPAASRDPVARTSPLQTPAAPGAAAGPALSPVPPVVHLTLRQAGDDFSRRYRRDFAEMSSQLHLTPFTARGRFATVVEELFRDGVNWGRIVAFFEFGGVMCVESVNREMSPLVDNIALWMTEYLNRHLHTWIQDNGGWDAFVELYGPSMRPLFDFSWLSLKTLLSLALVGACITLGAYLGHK
Chain of Bcl-xL (GST-Bcl-xL) (Q07817 whole entry, species assumed): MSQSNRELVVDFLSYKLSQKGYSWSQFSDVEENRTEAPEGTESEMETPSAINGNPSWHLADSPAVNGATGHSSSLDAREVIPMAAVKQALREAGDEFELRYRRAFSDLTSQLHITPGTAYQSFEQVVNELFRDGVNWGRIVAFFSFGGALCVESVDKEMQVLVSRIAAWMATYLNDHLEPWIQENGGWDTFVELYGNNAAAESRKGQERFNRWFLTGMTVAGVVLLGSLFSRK

`CC1(C)CCC(c2ccc(Cl)cc2)=C(CN2CCN(c3ccc(C(=O)NS(=O)(=O)c4ccc(N[C@H](CCN5CCOCC5)CSc5ccccc5)c(S(=O)(=O)C(F)(F)F)c4)cc3)CC2)C1` [ABT-263, N-(4-(4-((2-(4-chlorophenyl)-5,5-dimethyl-1-cyclohex-1-en-1-yl)methyl)piperazin-1-yl)benzoyl)-4-(((1R)-3-(morpholin-4-yl)-1-((phenylsulfanyl)methyl)propyl)amino)-3-((trifluoromethyl)sulfonyl)benzenesulfonamide]: the “binding to Bcl-2, Bcl-w and Bcl-xL” value in the experiment on Bcl-2, Bcl-w and Bcl-xL was “bind strongly”. Also, the “binding to Mcl-1 and A1” value in the experiment with Mcl-1 and A1 is “only weakly”. In addition, the “cytotoxic activity in certain xenograft models as single agents” value with xenograft models was “demonstrated cytotoxic activity”.

Consider `CN(C)CC#Cc1ccc(OCCCc2sc(N3CCc4cccc(C(=O)Nc5nc6ccccc6s5)c4C3)nc2C(=O)O)cc1` [Example 74, 2-[8-(Benzothiazol-2-ylcarbamoyl)-3,4-dihydro-1H-isoquinolin-2-yl]-5-{3-[4-(3-dimethylamino-prop-1-ynyl)-phenoxy]-propyl}-thiazole-4-carboxylic acid], for which the pKi was 10.30 at Bcl-xL (GST-Bcl-xL) and 7.22 at Bcl-2 (GST-Bcl-2). The pEC50 in experiment [1] was 8.15; with platelets, 7.68; in experiment [2] it was 6.15.

For `CN1CCN(c2ccc(OCCCc3sc(N4CCc5cccc(C(=O)Nc6nc7ccccc7s6)c5C4)nc3C(=O)O)cc2)CC1` [Example 82, 2-[8-(Benzothiazol-2-ylcarbamoyl)-3,4-dihydro-1H-isoquinolin-2-yl]-5-{3-[4-(4-methyl-piperazin-1-yl)-phenoxy]-propyl}-thiazole-4-carboxylic acid], the figures for the pKi on Bcl-xL (GST-Bcl-xL) and at Bcl-2 (GST-Bcl-2) were 10.30 and 6.92, respectively. Further, the pEC50 was 7.52 in experiment [1] and 5.60 in experiment [2].

As to `CN1CCN(CCCNc2ncnc3c2cnn3-c2ccc(OCCCc3sc(N4CCc5cccc(C(=O)Nc6nc7ccccc7s6)c5C4)nc3C(=O)O)cc2)CC1` [Example 84, 2-(8-(benzo[d]thiazol-2-ylcarbamoyl)-3,4-dihydroisoquinolin-2(1H)-yl)-5-(3-(4-(4-(3-(4-methylpiperazin-1-yl)propylamino)-1H-pyrazolo[3,4-d]pyrimidin-1-yl)phenoxy)propyl)thiazole-4-carboxylic acid], the pKi at Bcl-xL (GST-Bcl-xL) was 10.30; on Bcl-2 (GST-Bcl-2) it was 6.85. In addition, the pEC50 is 7.66 in experiment [1] and 6.21 in experiment [2].

With `O=C(Nc1nc2ccccc2s1)c1cccc2c1CN(c1nc(C(=O)O)c(CCCOc3ccc(OCCN4CCOCC4)cc3)s1)CC2` [Example 88, 2-[8-(Benzothiazol-2-ylcarbamoyl)-3,4-dihydro-1H-isoquinolin-2-yl]-5-{3-[4-(2-morpholin-4-yl-ethoxy)-phenoxy]-propyl}-thiazole-4-carboxylic acid], the pKi at Bcl-xL (GST-Bcl-xL) was 10.30; at Bcl-2 (GST-Bcl-2), 6.52. In addition, the pEC50 was 7.55 in experiment [1] and 8.52 in the experiment with platelets.

Take `CN1CCN(c2ccc(OCCCc3sc(N4CCc5cccc(C(=O)Nc6nc7ccccc7s6)c5C4)nc3C(=O)O)c(F)c2)CC1` [Example 93, 2-[8-(Benzothiazol-2-ylcarbamoyl)-3,4-dihydro-1H-isoquinolin-2-yl]-5-{3-[2-fluoro-4-(4-methyl-piperazin-1-yl)-phenoxy]-propyl}-thiazole-4-carboxylic acid]: the pKi on Bcl-xL (GST-Bcl-xL) is 10.30; at Bcl-2 (GST-Bcl-2), 6.81. In experiment [2], this compound showed a pEC50 of 5.49.

For `CN1CCN(c2ccc(OCCCc3ccc(N4CCc5cccc(C(=O)Nc6nc7ccccc7s6)c5C4)nc3C(=O)O)cc2)CC1` [Example 94, 6-[8-(Benzothiazol-2-ylcarbamoyl)-3,4-dihydro-1H-isoquinolin-2-yl]-3-{3-[4-(4-methyl-piperazin-1-yl)-phenoxy]-propyl}-pyridine-2-carboxylic acid], the pKi was 8.70 on Bcl-xL (GST-Bcl-xL) and 6.24 at Bcl-2 (GST-Bcl-2). Besides, in experiment [1], the pEC50 was 6.35.

As to `CN(C)CC#Cc1ccc(OCCCc2ccc(N3CCc4cccc(C(=O)Nc5nc6ccccc6s5)c4C3)nc2C(=O)O)c(F)c1` [Example 97, 6-(8-(benzo[d]thiazol-2-ylcarbamoyl)-3,4-dihydroisoquinolin-2(1H)-yl)-3-(3-(4-(3-(dimethylamino)prop-1-ynyl)-2-fluorophenoxy)propyl)picolinic acid], the pKi on Bcl-xL (GST-Bcl-xL) was 10.30; at Bcl-2 (GST-Bcl-2) it was 6.57. In addition, the pEC50 in experiment [1] is 7.59; in the experiment with platelets, 8.52; in experiment [2] it was 5.62.

In the case of `CN(C)CCCc1ccc(OCCCc2ccc(N3CCc4cccc(C(=O)Nc5nc6ccccc6s5)c4C3)nc2C(=O)O)c(F)c1` [Example 100, 6-[8-(Benzothiazol-2-ylcarbamoyl)-3,4-dihydro-1H-isoquinolin-2-yl]-3-{3-[4-(3-dimethylamino-propyl)-2-fluoro-phenoxy]-propyl}-pyridine-2-carboxylic acid], the results for the negative-log Ki (pKi) at Bcl-xL (GST-Bcl-xL) and at Bcl-2 (GST-Bcl-2) were 9.30 and 6.66, respectively. The pEC50 in experiment [1] is 6.40.

As usually defined, the pKi is −log10 of the Ki, conventionally taken in molar units.

The values are drawn from patent US8232273B2, “Heterocyclic compounds and methods of use” (Genentech, Inc., priority 2008, dated 2012).
